Results: patent US9265706B2, “Lichesterinic acid and the derivatives of same as pigmentation inhibitors” (Centre National de la Recherche Scientifique—CNRS, priority 2012, dated 2016)

System: B16 cells
Test: Melanin content of murine B16 cells by absorbance at 405 nm, related to protein, relative to DMSO control
Assay type: cell-based
Conditions: for depigmenting activity compared with the positive control hydroquinone: FIG. 2, C9LA+ and C5LA+ given by way of indication
Method: The cells are seeded in a 10 cm Petri dish at a density of 7×10^5 per dish and are incubated for 96 hours, with a defined concentration of lichen-derived molecule, which has been purified and solubilized in DMSO. After treatment, the cells are recovered by treatment with trypsin and washed twice with PBS. The number of cells recovered is estimated by counting using a hemocytometer. One and the same fraction is used to determine the melanin content and the protein concentration. The melanin content is determined by the absorbance at 405 nm (VersaMax Microplate Reader, Molecular Devices, USA) of the cell solution after solubilization of the melanin with 1M sodium hydroxide, for 15 min at 80° C. The protein concentration is determined according to the protocol of the “DC Protein Assay” kit developed by Bio-Rad laboratories, USA. For each sample treated, the melanin content is related to the amount of protein and expressed as a percentage relative to the control situation (DMSO solution alone). Each measurement is carried out in triplicate and each experiment is carried out independently a minimum of 3 times (except for the C9LA+ and C5LA+ derivatives given by way of indication).
FIGS. 1 and 2 bring together the results. These figures show the melanin content of the B16 cells treated for 96 h in the presence of a given molecule (FIG. 2), or of a (+)-lichesterinic acid ((+)LA)/(+)-protolichesterinic acid ((+)PLA)/(+)-roccellaric acid ((+)RA) mixture in a 60/25/15 weight ratio (FIG. 1).
Along the x-axis are the molecules tested with their concentrations expressed in μM.
Along the y-axis, the melanin content is expressed as a percentage relative to the control (DMSO alone=concentration of 0.1%).

[1] = 96 h incubation, concentrations of 0.5 to 2 μM, relative to control, FIG. 2

CCCCCCCCCCCCC[C@H]1OC(=O)[C@@H](C)[C@@H]1C(=O)O [roccellaric acid, (+)-roccellaric acid]
decrease in the melanin level (same conditions, 1 μM, individually isolated product, results not given in figures): not significant

CCCCCCCCCCCCC[C@@H]1OC(=O)C(C)=C1C(=O)O [LA−, (−)-lichesterinic acid]
stimulation of melanin production [1]: +10% to +30%

Oc1ccc(O)cc1 [hydroquinone]
decrease in the melanin level (depigmenting positive control) (96 h incubation, under the same conditions, concentration not given, FIG. 2): −20%

C=C1C(=O)O[C@H](CCCCCCCCCCCCC)[C@H]1C(=O)O [PLA+, (+)-protolichesterinic acid]
decrease in the melanin level (same conditions, 0.25 μM, individually isolated product, results not given in figures): about −20%

CCCCCCCCCCCCC[C@H]1OC(=O)C(C)=C1C(=O)O [(+)-lichesterinic acid]
depigmenting activity compared with the positive control hydroquinone (96 h incubation): greater depigmenting activity

CCCCCCCCC[C@H]1OC(=O)C(C)=C1C(=O)O [C9LA+, (+)-3-methyl-5-nonylparaconic acid]
depigmenting activity compared with the positive control hydroquinone (96 h incubation): greater depigmenting activity

CCCCC[C@H]1OC(=O)C(C)=C1C(=O)O [C5LA+]
depigmenting activity compared with the positive control hydroquinone (96 h incubation): comparable depigmenting activity

(+)-protolichesterinic acid [PLA+]
decrease in the melanin level [1]: 10% to 20%
